The assay addresses Envelope glycoprotein gp160 (Human immunodeficiency virus 1, UniProt Q6QLK5). Description: cell-free HIV fusion peptide-binding blockers – biochemical, uHTS, fluorescence dequenching, […] (AID 1986).

Activity calls are given as the source filed them. No stated cut-off is given here; in the data, actives have a measured IC50 and inactives only a lower limit.

Sequence of Envelope glycoprotein gp160 (Q6QLK5 whole entry, the tested form may be a part): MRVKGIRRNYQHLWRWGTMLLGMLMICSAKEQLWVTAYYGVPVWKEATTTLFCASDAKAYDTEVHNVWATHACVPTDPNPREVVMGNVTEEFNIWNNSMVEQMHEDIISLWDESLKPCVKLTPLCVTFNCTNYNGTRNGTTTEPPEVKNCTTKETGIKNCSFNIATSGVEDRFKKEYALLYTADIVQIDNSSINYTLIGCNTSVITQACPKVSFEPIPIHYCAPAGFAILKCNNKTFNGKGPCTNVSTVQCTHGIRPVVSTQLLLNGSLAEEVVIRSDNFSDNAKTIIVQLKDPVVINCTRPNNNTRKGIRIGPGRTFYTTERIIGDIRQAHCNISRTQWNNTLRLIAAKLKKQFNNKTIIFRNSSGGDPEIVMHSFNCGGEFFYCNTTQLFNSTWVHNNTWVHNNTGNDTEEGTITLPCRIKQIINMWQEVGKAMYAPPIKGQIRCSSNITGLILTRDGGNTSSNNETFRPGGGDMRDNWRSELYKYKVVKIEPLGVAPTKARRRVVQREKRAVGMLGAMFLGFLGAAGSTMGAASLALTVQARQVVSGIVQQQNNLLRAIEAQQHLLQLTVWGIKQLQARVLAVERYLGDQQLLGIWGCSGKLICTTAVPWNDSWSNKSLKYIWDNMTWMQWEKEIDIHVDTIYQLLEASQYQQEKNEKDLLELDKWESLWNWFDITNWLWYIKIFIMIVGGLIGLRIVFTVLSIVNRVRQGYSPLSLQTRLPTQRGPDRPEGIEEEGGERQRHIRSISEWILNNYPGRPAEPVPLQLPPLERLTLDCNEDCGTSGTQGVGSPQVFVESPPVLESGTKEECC

In general, IC50 refers to the concentration needed to halve the response being measured. As for `NC(=O)Cn1cc(C=C2C(=O)NC(=O)NC2=O)c2ccccc21`, the IC50 is 69.2 µM (active).
For the compound `Cc1ccc(NC(=O)COc2cccc(/C=C3\SC(=S)N(CCC(=O)O)C3=O)c2)cc1Cl`, the IC50 is 12.2 µM (active).

(Values after ChEMBL document CHEMBL1201862, “PubChem BioAssay data set” (2004).)
